Patent US11447471B2, “α,β-unsaturated amide compound” (KYOWA KIRIN CO., LTD., priority 2017, dated 2022)

Experiments:
OVTOKO cells = test: Cell growth inhibitory effect on human ovarian cancer cell line (cell counting kit 8, 6 days); assay type: cell-based; conditions: 144 h, 6 days incubation
From the text: (§1) NCI-H226 cells, a human mesothelioma cell line (ATCC, CRL-5826), NCI-H322 cells, a human lung cancer cell line (the European Collection of Authenticated Cell Cultures, 95111734), OUTOKO cells, a human ovarian cancer cell line (JCRB cell bank, KRB1048) and […] were each subcultured by keeping the cell density under 80% in a RPMI1640 culture medium with 10% fetal bovine serum (FBS). NCI-H226 cells, NCI-H322 cells and SSP-25 cells were each suspended in the RPMI1640 culture medium mentioned above, and plated to a 96-well flat-bottom plate at 500 cells/well in each well, and incubated at 37° C. in an incubator with 5% CO2 for one day. After the incubation, the evaluation of cell growth inhibitory activity was started. OVTOKO cells were suspended in the RPMI1640 culture medium mentioned above, and plated to a 96-well flat-bottom plate at 250 cells/well in each well, and incubated it at 37° C. in an incubator with 5% CO2 for one day. After the incubation, the evaluation of the cell growth inhibitory activity was started. The next day, a test compound was serially diluted to 5 times of its final concentration in the RPM11640 culture medium mentioned above, and the diluted solution was added to each well. In this case, the final concentration of DMSO in each well was adjusted to 0.1%. After the test compound was added, cells were incubated at 37° C. in an incubator with 5% CO2 for 6 days. At the addition of the test compound and 6 days after the addition, the cell counting measurement was performed using a cell counting kit 8 (made by DOJINDO) according to a protocol equivalent to DOJINDO's recommendation. A reagent contained in the kit was added to each plate and color reaction was performed for 2 or 3 hours at 37° C. in an incubator with 5% CO2. After the reaction, an absorbance at wavelength of 450 nm was measured using a microplate reader. A growth inhibition rate was calculated according to the following formula, from which the concentration of a test compound at which cell growth was inhibited by 50% (GI50 value) was determined.

NCI-H226 cells = test: Cell growth inhibitory effect on human mesothelioma cell line (cell counting kit 8, 6 days); assay type: cell-based; conditions: NCI-H226, 144 h
From the text: as §1

| GI50 (OVTOKO cells) [nM] | GI50 (NCI-H226 cells) [nM] | Structure (SMILES) |
| --- | --- | --- |
|  | 100 to 1000 | C=CC(=O)N[C@@H]1CC[C@H](Oc2ccccc2)c2ncccc21 (relative stereo) [Compound 67, cis-N-(8-Phenoxy-5,6,7,8-tetrahydroquinolin-5-yl)acrylamide] |
|  | 100 to 1000 | C=CC(=O)N[C@@H]1CC[C@H](Oc2ccc(C(F)(F)F)cc2)c2nc(CC)ccc21 (relative stereo) [Compound 186, cis-N-[2-ethyl-8-{4-(trifluoromethyl)phenoxy}-5,6,7,8-tetrahydroquinolin-5-yl]acrylamide] |
| ≤ 3000 |  | C=CC(=O)NC1CCOc2c1ccc(Oc1ccc(F)c(F)c1)c2OC (stereo not shown) [Compound 164, N-{7-(3,4-Difluorophenoxy)-8-methoxychroman-4-yl}acrylamide] |
| ≤ 3000 |  | C=CC(=O)NC1CCOc2c1ccc(Oc1ccc(C(F)(F)F)nc1)c2Cl (stereo not shown) [Compound 168, N-(8-Chloro-7-[{6-(trifluoromethyl)pyridin-3-yl}oxy]chroman-4-yl)acrylamide] |
| ≤ 3000 |  | C=CC(=O)NCc1ccc(Oc2ccc(C(F)(F)F)nc2)c2ncc(C)cc12 [Compound 200, N-{(3-Methyl-8-[{6-(trifluoromethyl)pyridin-3-yl}oxy]quinolin-5-yl)methyl}acrylamide] |
| ≤ 3000 |  | C=CC(=O)NCc1ccc(Oc2ccc(C(F)(F)F)cc2)c2nccc(C)c12 [Compound 201, N-([4-Methyl-8-{4-(trifluoromethyl)phenoxy}quinolin-5-yl]methyl)acrylamide] |
| ≤ 3000 |  | C=CC(=O)NCc1ccc(Sc2ccc(C(F)(F)F)cc2)c2ncccc12 [Compound 202, N-{(8-[{4-(Trifluoromethyl)phenyl}thio]quinolin-5-yl)methyl}acrylamide] |
| ≤ 3000 |  | C=CC(=O)NCc1ccc(Cc2ccc(C(F)(F)F)cc2)c2ncccc12 [Compound 211, N-([8-{4-(Trifluoromethyl)benzyl}quinolin-5-yl]methyl)acrylamide] |
| ≤ 3000 |  | C=CC(=O)NCc1ccc(Oc2ccc(C(F)(F)F)cc2)c2nc(C)ccc12 [Compound 212, N-([2-Methyl-8-{4-(trifluoromethyl)phenoxy}quinolin-5-yl]methyl)acrylamide] |
| ≤ 3000 |  | C=CC(=O)NCc1ccc(Oc2ccc(C(F)(F)F)cc2)c2cccnc12 [Compound 216, N-([5-{4-(Trifluoromethyl)phenoxy}quinolin-8-yl]methyl)acrylamide] |
| ≤ 3000 |  | C=CC(=O)NCc1ccc(Oc2ccc(C(F)(F)F)cc2)c2cnccc12 [Compound 223, N-([8-{4-(Trifluoromethy)phenoxy}isoquinolin-5-yl]methyl)acrylamide] |
| ≤ 3000 |  | C=CC(=O)Nc1cnc(Oc2ccc(Cl)cc2)c2ncccc12 [Compound 226, N-{8-(4-chlorophenoxy)-1,7-naphthyridin-5-yl}acrylamide] |
|  | 100 to 1000 | C=CC(=O)NCc1nc2cc(Oc3ccc(C(F)(F)F)cc3)ccc2o1 [Compound 255, N-([5-{4-(Trifluoromethyl)phenoxy}benzo[d]oxazol-2-yl]methyl)acrylamide] |

More lines, now with the values behind:

| Structure (SMILES) | GI50 (OVTOKO cells) [nM] | GI50 (NCI-H226 cells) [nM] |
| --- | --- | --- |
| [H]/C=C/C(=O)NC1CCOc2c1ccc(Oc1ccc(C(F)(F)F)cc1)c2F (racemic) [Compound 31, N-[8-Fluoro-7-{4-(trifluoromethyl)phenoxy}chroman-4-yl]acrylamide] | ≤ 3000 | < 100 |
| [H]/C=C/C(=O)NC1CCOc2c1ccc(Oc1ccc(C(F)(F)F)cc1)c2OC (racemic) [Compound 33, N-[8-Methoxy-7-{4-(trifluoromethyl)phenoxy}chroman-4-yl]acrylamide] | ≤ 3000 | < 100 |
| C=CC(=O)N[C@@H]1CC[C@H](Oc2ccc(Cl)c(Cl)c2)c2nc(Cl)ccc21 (relative stereo) [Compound 178, cis-N-{2-Chloro-8-(3,4-dichlorophenoxy)-5,6,7,8-tetrahydroquinolin-5-yl}acrylamide] |  | < 100 |
| C=CC(=O)N[C@@H]1CC[C@H](Oc2cnc(Cl)c(Cl)c2)c2nc(Cl)ccc21 (relative stereo) [Compound 181, cis-N-[2-Chloro-8-{(5,6-dichloropyridin-3-yl)oxy}-5,6,7,8-tetrahydroquinolin-5-yl]acrylamide] |  | 100 to 1000 |
| C=CC(=O)NC1CC[C@@H](Oc2ccc(Cl)cc2)c2nc(OC)ccc21 (stereo in doubt) [Compound 81, trans-N-{8-(4-Chlorophenoxy)-2-methoxy-5,6,7,8-tetrahydroquinolin-5-yl}acrylamide] |  | 100 to 1000 |
| C=CC(=O)Nc1cncc(Oc2ccc(OC(C)C)nc2)c1 [Compound 110, N-[5-{(6-Isopropoxypyridin-3-yl)oxy}pyridin-3-yl]acrylamide] |  | 100 to 1000 |
| O=C(/C=C/C(F)(F)F)NCc1ccc(Oc2ccc(Cl)cc2)c2ncccc12 [Compound 135, (E)-N-[{8-(4-Chlorophenoxy)quinolin-5-yl}methyl]-4,4,4-trifluoro-2-butenamide] |  | 100 to 1000 |
| C=CC(=O)NC1COc2c(cccc2Oc2cnc(C(F)(F)F)cn2)C1 (stereo not shown) [Compound 157, N-(8-[{5-(Trifluoromethyl)pyrazin-2-yl}oxy]chroman-3-yl)acrylamide] | ≤ 3000 |  |
| C=CC(=O)NC1COc2c(cc(C(F)(F)F)cc2Oc2ccc(C(F)(F)F)nc2)C1 (stereo not shown) [Compound 162, N-{6-(Trifluoromethyl)-8-[{6-(trifluoromethyl)pyridin-3-yl}oxy]chroman-3-yl}acrylamide] | ≤ 3000 |  |
| C=CC(=O)NC1CCOc2c1ccc(Oc1ccc(C(F)(F)F)nc1)c2Br (stereo not shown) [Compound 169, N-(8-Bromo-7-[{6-(trifluoromethyl)pyridin-3-yl}oxy]chroman-4-yl)acrylamide] | ≤ 3000 |  |
| C=CC(=O)NCc1ccc(Oc2ccc(Cl)cc2)c2c1CCCO2 [Compound 176, N-[{8-(4-Chlorophenoxy)chroman-5-yl}methyl]acrylamide] | ≤ 3000 |  |
| C=CC(=O)NCc1ccc(Oc2cnc(C(F)(F)F)nc2)c2ncccc12 [Compound 196, N-{(8-[{2-(Trifluoromethyl)pyrimidin-5-yl}oxy]quinolin-5-yl)methyl}acrylamide] |  | 100 to 1000 |
| C=CC(=O)NCc1ccc(Oc2ccc(C(F)(F)F)cc2)c2ncc(C)cc12 [Compound 199, N-([3-Methyl-8-{4-(trifluoromethyl)phenoxy}quinolin-5-yl]methyl)acrylamide] | ≤ 3000 |  |
| C=CC(=O)NCc1ccc(Nc2ccc(C(F)(F)F)cc2)c2ncccc12 [Compound 203, N-{(8-[{4-(Trifluoromethyl)phenyl}amino]quinolin-5-yl)methyl}acrylamide] | ≤ 3000 |  |
| C=CC(=O)NCc1ccc(C(O)c2ccc(C(F)(F)F)cc2)c2ncccc12 (stereo not shown) [Compound 206, N-{(8-[Hydroxy{4-(trifluoromethyl)phenyl}methyl]quinolin-5-yl)methyl}acrylamide] | ≤ 3000 |  |
| C=CC(=O)NCc1ccc(C(=O)c2ccc(C(F)(F)F)cc2)c2ncccc12 [Compound 208, N-([8-{4-(Trifluoromethyl)benzoyl}quinolin-5-yl]methyl)acrylamide] | ≤ 3000 |  |
| C=CC(=O)NCc1ccc(Oc2ccc(C(F)(F)F)nc2)c2cccnc12 [Compound 219, N-{(5-[{6-(Trifluoromethyl)pyridin-3-yl}oxy]quinolin-8-yl)methyl}acrylamide] | ≤ 3000 |  |
| C=CC(=O)NCc1cnc(Oc2ccc(C(F)(F)F)cc2)c2ccccc12 [Compound 222, N-([1-{4-(Trifluoromethyl)phenoxy}isoquinolin-4-yl]methyl)acrylamide] | ≤ 3000 |  |
| C=CC(=O)NCc1ncc(Oc2ccc(C(F)(F)F)cc2)c2ccccc12 [Compound 224, N-([4-{4-(Trifluorophenyl)phenoxy}isoquinolin-1-yl]methyl)acrylamide] | ≤ 3000 |  |
| C=CC(=O)NCc1cnc(Oc2ccc(Cl)cc2)c2ncccc12 [Compound 227, N-[{8-(4-Chlorophenoxy)-1,7-naphthyridin-5-yl}methyl]acrylamide] | ≤ 3000 |  |
| C=CC(=O)NC1COc2c(cccc2Oc2ccc(C(F)(F)F)nc2)C1 (stereo not shown) [Compound 229, N-(8-[{6-(Trifluoromethyl)pyridin-3-yl}oxy]chroman-3-yl)acrylamide] | ≤ 3000 |  |
| C=CC(=O)NCc1nc2c(Oc3ccc(C(F)(F)F)cc3)cccc2o1 [Compound 254, N-([4-{4-(Trifluoromethyl)phenoxy}benzo[d]oxazol-2-yl]methyl)acrylamide] |  | 100 to 1000 |
| C=CC(=O)NC1CCCOc2cc(Oc3ccc(C(F)(F)F)cc3)ccc21 (stereo not shown) [Compound 261, N-[8-{4-(Trifluoromethyl)phenoxy}-2,3,4,5-tetrahydrobenzo[b]oxepin-5-yl]acrylamide] |  | 100 to 1000 |
| C=CC(=O)NCc1ccc(CCc2ccc(C(F)(F)F)cc2)c2nc(C)oc12 [Compound 267, N-([2-Methyl-4-{4-(trifluoromethyl)phenethyl}benzo[d]oxazol-7-yl]methyl)acrylamide] | ≤ 3000 | 100 to 1000 |
